From ChEMBL document CHEMBL4411260, “Dual Inhibition of TYK2 and JAK1 for the Treatment of Autoimmune Diseases: Discovery of (( S)-2,2-Difluorocyclopropyl)((1 R,5 S)-3-(2-((1-methyl-1 H-pyrazol-4-yl)amino)pyrimidin-4-yl)-3,8-diazabicyclo[3.2.1]octan-8-yl)methanone (PF-06700841)” (J Med Chem, 2018)

Legend:
[1] = molecular target: T1, Non-receptor tyrosine-protein kinase TYK2 (Homo sapiens, UniProt P29597); assay: Inhibition of human TYK2 using fluorescence labeled peptide as substrate and using ATP at its Km level by microfluidic based mobility shift assay
[2] = molecular target: T2, Tyrosine-protein kinase JAK1 (Homo sapiens, UniProt P23458); assay: Inhibition of human JAK1 using fluorescence labeled peptide as substrate and using ATP at its Km level by microfluidic based mobility shift assay
[3] = molecular target: T3, Tyrosine-protein kinase JAK2 (Homo sapiens, UniProt O60674); assay: Inhibition of human JAK2 using fluorescence labeled peptide as substrate and using ATP at its Km level by microfluidic based mobility shift assay
[4] = molecular target: T4, Tyrosine-protein kinase JAK3 (Homo sapiens, UniProt P52333); assay: Inhibition of human JAK3 using fluorescence labeled peptide as substrate and using ATP at its Km level by microfluidic based mobility shift assay
T4 sequence (P52333 whole entry): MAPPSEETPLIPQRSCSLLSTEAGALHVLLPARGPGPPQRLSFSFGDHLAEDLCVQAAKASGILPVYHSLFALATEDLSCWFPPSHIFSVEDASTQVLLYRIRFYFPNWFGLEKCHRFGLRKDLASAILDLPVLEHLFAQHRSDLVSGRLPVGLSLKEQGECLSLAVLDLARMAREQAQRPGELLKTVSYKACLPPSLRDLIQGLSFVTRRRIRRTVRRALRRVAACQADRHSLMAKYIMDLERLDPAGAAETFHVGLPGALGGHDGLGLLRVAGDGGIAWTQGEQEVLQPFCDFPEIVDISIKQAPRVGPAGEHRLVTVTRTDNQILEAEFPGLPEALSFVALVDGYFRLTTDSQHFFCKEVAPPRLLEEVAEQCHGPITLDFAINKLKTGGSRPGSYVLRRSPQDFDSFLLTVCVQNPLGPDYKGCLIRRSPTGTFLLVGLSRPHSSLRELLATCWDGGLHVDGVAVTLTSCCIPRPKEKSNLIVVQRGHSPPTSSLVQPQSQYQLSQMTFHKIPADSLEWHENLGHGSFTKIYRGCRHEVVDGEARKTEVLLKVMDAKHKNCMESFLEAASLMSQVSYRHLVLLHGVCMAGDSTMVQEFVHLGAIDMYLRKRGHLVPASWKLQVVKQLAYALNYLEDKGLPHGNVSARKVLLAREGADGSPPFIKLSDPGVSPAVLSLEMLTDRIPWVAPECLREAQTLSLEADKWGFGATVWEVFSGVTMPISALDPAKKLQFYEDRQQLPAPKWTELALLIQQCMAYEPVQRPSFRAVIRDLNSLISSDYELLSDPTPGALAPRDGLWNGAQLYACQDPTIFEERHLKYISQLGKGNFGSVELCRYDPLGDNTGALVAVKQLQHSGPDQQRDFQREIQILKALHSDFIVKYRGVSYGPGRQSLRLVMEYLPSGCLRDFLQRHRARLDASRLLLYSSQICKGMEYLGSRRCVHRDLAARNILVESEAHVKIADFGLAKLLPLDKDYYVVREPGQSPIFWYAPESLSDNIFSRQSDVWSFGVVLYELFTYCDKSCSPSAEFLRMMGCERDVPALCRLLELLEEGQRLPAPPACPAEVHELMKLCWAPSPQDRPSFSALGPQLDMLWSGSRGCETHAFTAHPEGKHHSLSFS

[5] = physchem; details: octanol/water phosphate buffer, pH 7.4
[6] = molecular target: T3, Tyrosine-protein kinase JAK2
[7] = molecular target: T4, Tyrosine-protein kinase JAK3
[8] = molecular target: T1, Non-receptor tyrosine-protein kinase TYK2
[9] = molecular target: T2, Tyrosine-protein kinase JAK1
[10] = Passive apparent permeability from apical to basolateral side in RRCK cells; format: ADME, cell-based, Canis lupus familiaris, MDCKII-LE; details: dog, MDCK
[11] = molecular target: T5, JAK1/TYK2 (Homo sapiens, UniProt P23458+P29597); assay: Inhibition of JAK1/TYK2 signaling pathway in human lymphocytes of whole blood assessed as reduction in IFN-alpha induced STAT3 phosphorylation preincubated for 45 mins followed by IFN-alpha addition and measured measured after 15 mins by FACS assay; format: cell-based
[12] = molecular target: T3, Tyrosine-protein kinase JAK2; remark: listed apart in the source
[13] = molecular target: T5, JAK1/TYK2
[14] = molecular target: T3, Tyrosine-protein kinase JAK2; remark: listed apart in the source

T3 sequence (O60674 whole entry): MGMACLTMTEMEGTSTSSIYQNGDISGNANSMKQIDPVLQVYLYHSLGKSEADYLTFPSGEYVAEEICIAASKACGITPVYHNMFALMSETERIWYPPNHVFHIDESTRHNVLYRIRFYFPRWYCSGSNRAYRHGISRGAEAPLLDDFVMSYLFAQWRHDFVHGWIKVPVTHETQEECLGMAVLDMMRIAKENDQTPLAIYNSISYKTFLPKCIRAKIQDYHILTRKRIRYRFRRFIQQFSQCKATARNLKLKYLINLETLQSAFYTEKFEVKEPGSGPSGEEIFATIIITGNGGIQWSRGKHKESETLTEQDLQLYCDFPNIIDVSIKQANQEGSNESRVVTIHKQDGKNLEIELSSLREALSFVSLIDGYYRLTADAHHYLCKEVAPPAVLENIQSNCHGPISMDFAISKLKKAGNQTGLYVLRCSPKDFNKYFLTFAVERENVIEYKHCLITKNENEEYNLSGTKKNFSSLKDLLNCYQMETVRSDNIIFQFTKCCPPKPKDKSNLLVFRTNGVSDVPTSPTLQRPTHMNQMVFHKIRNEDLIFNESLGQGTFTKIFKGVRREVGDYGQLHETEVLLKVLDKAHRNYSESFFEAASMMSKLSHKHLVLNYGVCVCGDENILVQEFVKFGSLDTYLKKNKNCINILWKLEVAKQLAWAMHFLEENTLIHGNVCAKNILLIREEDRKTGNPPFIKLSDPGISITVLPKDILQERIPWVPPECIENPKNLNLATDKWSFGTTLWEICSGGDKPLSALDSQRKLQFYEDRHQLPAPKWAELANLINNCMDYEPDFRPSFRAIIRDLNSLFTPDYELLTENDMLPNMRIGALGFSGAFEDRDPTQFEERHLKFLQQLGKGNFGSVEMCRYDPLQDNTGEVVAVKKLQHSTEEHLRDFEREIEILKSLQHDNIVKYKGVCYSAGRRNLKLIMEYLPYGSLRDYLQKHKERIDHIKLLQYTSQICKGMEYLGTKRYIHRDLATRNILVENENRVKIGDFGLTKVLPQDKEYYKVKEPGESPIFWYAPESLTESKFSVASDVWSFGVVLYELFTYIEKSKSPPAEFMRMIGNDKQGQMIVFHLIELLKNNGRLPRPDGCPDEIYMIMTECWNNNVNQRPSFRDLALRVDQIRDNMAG
T5 sequence (P23458 whole entry): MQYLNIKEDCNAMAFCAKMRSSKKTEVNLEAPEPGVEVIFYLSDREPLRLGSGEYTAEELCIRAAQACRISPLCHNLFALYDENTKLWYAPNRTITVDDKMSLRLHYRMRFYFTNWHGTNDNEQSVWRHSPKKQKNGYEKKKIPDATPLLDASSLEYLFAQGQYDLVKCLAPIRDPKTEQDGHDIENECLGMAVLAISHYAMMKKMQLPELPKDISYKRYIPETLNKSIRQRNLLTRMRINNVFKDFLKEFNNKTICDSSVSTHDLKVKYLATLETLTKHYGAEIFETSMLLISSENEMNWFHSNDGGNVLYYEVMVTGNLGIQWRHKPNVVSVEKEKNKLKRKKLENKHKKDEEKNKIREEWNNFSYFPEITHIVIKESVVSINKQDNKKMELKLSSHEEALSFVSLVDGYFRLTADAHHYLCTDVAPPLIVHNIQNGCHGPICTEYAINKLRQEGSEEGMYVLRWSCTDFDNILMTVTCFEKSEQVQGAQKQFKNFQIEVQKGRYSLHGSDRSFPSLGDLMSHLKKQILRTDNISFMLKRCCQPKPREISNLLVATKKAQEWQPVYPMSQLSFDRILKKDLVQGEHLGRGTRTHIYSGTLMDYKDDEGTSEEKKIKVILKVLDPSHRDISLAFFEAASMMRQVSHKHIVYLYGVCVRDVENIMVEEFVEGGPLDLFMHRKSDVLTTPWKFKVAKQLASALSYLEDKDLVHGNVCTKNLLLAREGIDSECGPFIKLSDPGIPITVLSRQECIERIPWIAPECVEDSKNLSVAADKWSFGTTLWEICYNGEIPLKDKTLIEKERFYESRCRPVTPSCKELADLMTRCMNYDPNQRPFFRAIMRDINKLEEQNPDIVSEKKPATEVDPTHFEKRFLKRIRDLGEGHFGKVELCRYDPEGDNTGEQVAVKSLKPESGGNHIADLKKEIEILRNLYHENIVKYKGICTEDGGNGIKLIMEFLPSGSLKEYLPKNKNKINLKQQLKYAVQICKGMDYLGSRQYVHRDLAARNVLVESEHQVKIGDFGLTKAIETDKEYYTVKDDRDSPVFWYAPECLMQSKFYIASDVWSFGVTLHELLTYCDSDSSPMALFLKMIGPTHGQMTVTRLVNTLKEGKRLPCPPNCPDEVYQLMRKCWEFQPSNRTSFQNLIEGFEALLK
T5 sequence (P29597 whole entry): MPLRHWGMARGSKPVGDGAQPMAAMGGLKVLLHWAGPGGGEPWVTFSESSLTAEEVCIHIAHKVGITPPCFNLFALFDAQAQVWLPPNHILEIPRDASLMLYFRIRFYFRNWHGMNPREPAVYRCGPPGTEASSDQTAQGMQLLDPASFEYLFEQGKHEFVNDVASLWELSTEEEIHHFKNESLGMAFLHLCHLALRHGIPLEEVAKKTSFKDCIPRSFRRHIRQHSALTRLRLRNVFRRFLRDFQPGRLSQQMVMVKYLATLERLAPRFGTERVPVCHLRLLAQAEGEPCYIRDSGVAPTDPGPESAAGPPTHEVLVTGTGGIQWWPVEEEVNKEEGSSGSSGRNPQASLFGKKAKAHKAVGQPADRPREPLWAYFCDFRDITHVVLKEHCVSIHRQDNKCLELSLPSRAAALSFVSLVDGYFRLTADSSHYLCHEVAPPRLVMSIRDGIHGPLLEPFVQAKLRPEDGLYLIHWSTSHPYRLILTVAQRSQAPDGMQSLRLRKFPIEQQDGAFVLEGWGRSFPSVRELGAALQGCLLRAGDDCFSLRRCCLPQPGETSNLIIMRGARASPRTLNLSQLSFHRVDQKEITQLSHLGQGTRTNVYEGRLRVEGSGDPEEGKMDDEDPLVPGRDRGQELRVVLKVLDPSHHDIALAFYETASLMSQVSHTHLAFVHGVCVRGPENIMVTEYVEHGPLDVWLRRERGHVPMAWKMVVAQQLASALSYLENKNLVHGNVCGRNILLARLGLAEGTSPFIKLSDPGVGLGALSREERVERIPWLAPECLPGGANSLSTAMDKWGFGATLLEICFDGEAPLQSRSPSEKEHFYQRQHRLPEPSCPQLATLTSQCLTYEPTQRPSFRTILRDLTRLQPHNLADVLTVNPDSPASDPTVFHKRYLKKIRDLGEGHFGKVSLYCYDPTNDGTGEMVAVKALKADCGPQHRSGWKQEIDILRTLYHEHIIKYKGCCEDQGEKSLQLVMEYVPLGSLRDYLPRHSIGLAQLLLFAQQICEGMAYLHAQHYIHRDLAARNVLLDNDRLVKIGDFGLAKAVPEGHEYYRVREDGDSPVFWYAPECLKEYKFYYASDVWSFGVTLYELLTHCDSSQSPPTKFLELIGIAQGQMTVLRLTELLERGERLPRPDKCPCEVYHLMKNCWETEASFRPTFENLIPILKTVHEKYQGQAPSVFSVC
T2 sequence (P23458 whole entry): as the sequence (P23458 whole entry) above
T1 sequence (P29597 whole entry): as the sequence (P29597 whole entry) above

SMILES	logD [5]	IC50 [6]	IC50 [7]	IC50 [8]	IC50 [9]	fIC50 [13]	fIC50 [14]	further results
CCNC(=O)c1ccc(Nc2nccc(N3C[C@H]4C[C@@H]3CN4C(=O)CC#N)n2)cc1	0.9							IC50 [1]: 2690 nM; IC50 [2]: 7180 nM; IC50 [3]: > 4220 nM; IC50 [4]: > 10000 nM
CCNC(=O)c1ccc(Nc2nccc(N3CCN(C(=O)CC#N)CC3)n2)cc1								IC50 [1]: 368 nM; IC50 [2]: 3060 nM; IC50 [3]: 1080 nM; IC50 [4]: 8740 nM
CCNC(=O)c1ccc(Nc2nccc(N3C[C@@H]4CC[C@H]3CN4C(=O)C3CC3)n2)cc1	2.16	2780 nM	> 10000 nM	148 nM	748 nM			
CCNC(=O)c1ccc(Nc2nccc(N3C[C@@H]4C[C@H]3CN4C(=O)CC#N)n2)cc1	0.9	> 9970 nM	> 10000 nM	774 nM	3710 nM			IC50 [1]: 23 nM; IC50 [2]: 358 nM; IC50 [3]: 366 nM; IC50 [4]: > 4950 nM
CCNC(=O)c1ccc(Nc2nccc(N3C[C@H]4C[C@@H](C3)N4C(=O)C3CC3)n2)cc1	2.15							
CCNC(=O)c1ccc(Nc2nccc(N3C[C@@H]4C[C@H]3CN4C(=O)C3CC3)n2)cc1	1.96	> 10000 nM	> 10000 nM	1740 nM	> 9520 nM			
CCNC(=O)c1ncc(Nc2ncc(F)c(N3CC4CC[C@H](C3)N4C(=O)C3CC3)n2)cc1C (single isomer, unassigned)	3.21	692 nM	4960 nM	48 nM	234 nM	91 nM	11 nM	Papp A→B [10]: 5.6 to 18.8 ×10⁻⁶ cm/s; IC50 [11]: 385 nM; IC50 [12]: 12200 nM
CCNC(=O)c1ccc(Nc2ncc(F)c(N3CC4CC[C@H](C3)N4C(=O)C3CC3)n2)nc1 (single isomer, unassigned)	2.71	> 10000 nM	> 10000 nM	7200 nM	> 10000 nM			Papp A→B [10]: 5.6 to 18.8 ×10⁻⁶ cm/s
Cn1cc(Nc2nccc(N3CC4CC[C@H](C3)N4C(=O)[C@H]3CC3(F)F)n2)cn1 (single isomer, unassigned)	1.55							
CCNC(=O)N1C2CC[C@@H]1CN(c1ccnc(Nc3cnn(C)c3)n1)C2 (single isomer, unassigned)	1.44					60 nM	14 nM	
Cn1cc(Nc2nccc(N3CC4CC[C@H](C3)N4C(=O)NCC#N)n2)cn1 (single isomer, unassigned)	0.97					73 nM	28 nM	Papp A→B [10]: 0.6 ×10⁻⁶ cm/s
Cn1cc(Nc2nccc(N3CC4CC[C@H](C3)N4C(=O)NCC(F)(F)F)n2)cn1 (single isomer, unassigned)	1.72	146 nM	6870 nM	28 nM	14 nM	26 nM	15 nM	IC50 [11]: 51 nM; IC50 [12]: 1160 nM
O=C(C1CC1)N1C2CC[C@@H]1CN(c1nc(Nc3cnn(CCO)c3)ncc1F)C2 (single isomer, unassigned)	1.78					70 nM	10 nM	Papp A→B [10]: 5.6 to 18.8 ×10⁻⁶ cm/s
CCNC(=O)c1ccc(Nc2ncc(F)c(N3CC4CC[C@H](C3)N4C(=O)C3CC3)n2)cc1 (single isomer, unassigned)	2.88							
Cn1cc(Nc2nccc(N3CC4CC[C@H](C3)N4C(=O)C3CC3)n2)cn1 (single isomer, unassigned)	1.52					91 nM	11 nM	
Cn1cc(Nc2ncc(F)c(N3CC4CC[C@H](C3)N4C(=O)C3CC3)n2)cn1 (single isomer, unassigned)	2.13	488 nM	2880 nM	53 nM	76 nM	84 nM	8 nM	Papp A→B [10]: 5.6 to 18.8 ×10⁻⁶ cm/s; IC50 [11]: 144 nM; IC50 [12]: 6280 nM
CCNC(=O)c1ccc(Nc2nccc(N3CC4CC[C@H](C3)N4C(=O)C3CC3)n2)cc1 (single isomer, unassigned)	1.86							
